# Tests used:
# [1] = test system: HCV replicon; assay: microbe, parasite or virus in culture; assay type: cell-based; details: Hepatitis C virus, 48 h, read-out: Replicon IC5Os
smiles,measurement,setting,value
CCn1c(-c2ccc(NC(=O)OC)cc2)c(C#N)c2ccc(OCCF)cc21 [Compound 545],IC50,[1],500 to 2000 nM
same,melting point,,203 to 205 °C
CCOC(=O)Nc1ccc(-c2c(C#N)c3ccc(OCCF)cc3n2CC)cc1 [Compound 546],IC50,[1],< 500 nM
same,melting point,,208 to 210 °C
CCn1c(-c2ccc(NS(C)(=O)=O)cc2)c(C#N)c2ccc(OCCF)cc21 [Compound 548],IC50,[1],500 to 2000 nM
same,melting point,,171 to 174 °C
CCn1c(-c2ccc(NS(=O)(=O)CC)cc2)c(C#N)c2ccc(OCCF)cc21 [Compound 549],IC50,[1],< 500 nM
same,melting point,,150 to 153 °C
CCCS(=O)(=O)Nc1ccc(-c2c(C#N)c3ccc(OCCF)cc3n2CC)cc1 [Compound 550],IC50,[1],500 to 2000 nM
same,melting point,,183 to 185 °C
CCn1c(-c2ccc(NS(=O)(=O)CCCCl)cc2)c(C#N)c2ccc(OCCF)cc21 [Compound 551],IC50,[1],500 to 2000 nM
same,melting point,,187 to 190 °C
CCn1c(-c2ccc(NS(=O)(=O)C3CC3)cc2)c(C#N)c2ccc(OCCF)cc21 [Compound 552],IC50,[1],< 500 nM
same,melting point,,185 to 188 °C
CCCS(=O)(=O)Nc1cccc(-c2c(C#N)c3ccc(C(F)(F)F)cc3n2CC)c1 [Compound 563],IC50,[1],500 to 2000 nM
same,melting point,,210 to 212 °C
CCn1c(-c2ccc(NC(=O)C3CCC3)cc2)c(C#N)c2ccccc21 [Compound 567],IC50,[1],500 to 2000 nM
same,melting point,,238.2 to 238.6 °C
CCn1c(-c2ccc(C(=O)NC(C)C)cc2)c(C#N)c2cc(OC)ccc21 [Compound 570],IC50,[1],500 to 2000 nM
same,melting point,,220 to 222 °C
CCS(=O)(=O)Nc1ccc(-c2c(C#N)c3cc(OC)ccc3n2C)cc1 [Compound 580],IC50,[1],< 500 nM
same,melting point,,198 to 200 °C
CCCS(=O)(=O)Nc1ccc(-c2c(C#N)c3cc(Cl)ccc3n2CC)cc1 [Compound 601],IC50,[1],< 500 nM
same,melting point,,195 to 200 °C
CCn1c(-c2ccc(NS(=O)(=O)C3CC3)cc2)c(C#N)c2cc(Cl)ccc21 [Compound 602],IC50,[1],< 500 nM
same,melting point,,179 to 184 °C
CCCOC(=O)Nc1cccc(-c2c(C#N)c3cc(N4CCOCC4)ccc3n2CC)c1 [Compound 606],IC50,[1],< 500 nM
same,melting point,,166 to 170 °C
CCn1c(-c2cccc(NC(=O)OCCOC)c2)c(C#N)c2cc(N3CCOCC3)ccc21 [Compound 607],IC50,[1],< 500 nM
same,melting point,,189 to 194 °C
COc1ccc2c(C#N)c(-c3ccc(NS(C)(=O)=O)cc3)n(CC3CC3)c2c1 [Compound 611],IC50,[1],500 to 2000 nM
same,melting point,,126 to 128 °C
CCS(=O)(=O)Nc1ccc(-c2c(C#N)c3ccc(OC)cc3n2CC2CC2)cc1 [Compound 612],IC50,[1],500 to 2000 nM
same,melting point,,198 to 200 °C
CS(=O)(=O)Nc1ccc(-c2c(C#N)c3ccc(OC(F)F)cc3n2CC2CC2)cc1 [Compound 613],IC50,[1],< 500 nM
same,melting point,,198 to 200 °C
CCS(=O)(=O)Nc1ccc(-c2c(C#N)c3ccc(OC(F)F)cc3n2CC2CC2)cc1 [Compound 614],IC50,[1],< 500 nM
same,melting point,,176 to 177 °C
CCCCS(=O)(=O)Nc1ccc(-c2c(C#N)c3cc(Cl)ccc3n2CC)cc1 [Compound 616],IC50,[1],< 500 nM
same,melting point,,143 to 149 °C
CCn1c(-c2ccc(NS(=O)(=O)CCCCl)cc2)c(C#N)c2cc(Cl)ccc21 [Compound 617],IC50,[1],< 500 nM
same,melting point,,164 to 167 °C
CCOC(=O)Nc1ccc(-c2c(C#N)c3cc(Cl)ccc3n2CC)cc1 [Compound 618],IC50,[1],< 500 nM
same,melting point,,205 to 211 °C
CCCOC(=O)Nc1ccc(-c2c(C#N)c3cc(Cl)ccc3n2CC)cc1 [Compound 619],IC50,[1],500 to 2000 nM
same,melting point,,201 to 206 °C
CCCn1c(-c2ccc(NS(=O)(=O)CCC)cc2)c(C#N)c2ccc(OC)cc21 [Compound 621],IC50,[1],500 to 2000 nM
same,melting point,,187 to 188 °C
CCCn1c(-c2ccc(NS(=O)(=O)C(C)C)cc2)c(C#N)c2ccc(OC)cc21 [Compound 622],IC50,[1],500 to 2000 nM
same,melting point,,182 to 183 °C
CCCn1c(-c2ccc(NS(=O)(=O)Cc3ccccc3)cc2)c(C#N)c2ccc(OC)cc21 [Compound 623],IC50,[1],500 to 2000 nM
same,melting point,,217 to 218 °C
CCCn1c(-c2ccc(NC(=O)NCC)cc2)c(C#N)c2ccc(OC)cc21 [Compound 626],IC50,[1],500 to 2000 nM
same,melting point,,193 to 194 °C
CCCNC(=O)Nc1ccc(-c2c(C#N)c3cc(Cl)ccc3n2CC)cc1 [Compound 628],IC50,[1],500 to 2000 nM
same,melting point,,221 to 226 °C
CCS(=O)(=O)Nc1ccc(-c2c(C#N)c3cc(Cl)ccc3n2CCC(C)C)cc1 [Compound 631],IC50,[1],500 to 2000 nM
same,melting point,,177 to 182 °C
C=Cn1c(-c2ccc(NS(=O)(=O)CC)cc2)c(C#N)c2ccc(OC)cc21 [Compound 633],IC50,[1],500 to 2000 nM
same,melting point,,159 to 161 °C
C=Cn1c(-c2ccc(NS(=O)(=O)C3CC3)cc2)c(C#N)c2ccc(OC)cc21 [Compound 635],IC50,[1],< 500 nM
same,melting point,,200 to 201 °C
CCCn1c(-c2ccc(NC(=O)OC(C)C)cc2)c(C#N)c2ccc(OC)cc21 [Compound 641],IC50,[1],500 to 2000 nM
same,melting point,,177 to 178 °C
CCn1c(-c2ccc(CNS(C)(=O)=O)cc2)c(C#N)c2ccc(OC)cc21 [Compound 650],IC50,[1],500 to 2000 nM
same,melting point,,165 to 166 °C
CCn1c(-c2ccc(N(C)S(=O)(=O)CCl)cc2)c(C#N)c2ccc(OC)cc21 [Compound 652],IC50,[1],< 500 nM
same,melting point,,191 to 194 °C
CCCOc1ccc2c(C#N)c(-c3ccc(N4CCCS4(=O)=O)cc3)n(CC)c2c1 [Compound 667],IC50,[1],< 500 nM
same,melting point,,242 to 244 °C
CCn1c(-c2ccc(NS(=O)(=O)CC)cc2)c(C#N)c2ccc(OCc3cccnc3)cc21 [Compound 669],IC50,[1],< 500 nM
same,melting point,,213 to 215 °C
CCn1c(-c2ccc(NS(=O)(=O)C3CC3)cc2)c(C#N)c2ccc(OCc3cccnc3)cc21 [Compound 670],IC50,[1],< 500 nM
same,melting point,,231 to 233 °C
CCn1c(-c2ccc(NS(=O)(=O)CC)cc2)c(C#N)c2ccc(OCc3ccccn3)cc21 [Compound 671],IC50,[1],< 500 nM
same,melting point,,221 to 222 °C
CCOC(=O)Nc1ccc(-c2c(C#N)c3ccc(OC)cc3n2CCOC)cc1 [Compound 676],IC50,[1],500 to 2000 nM
same,melting point,,174 to 175 °C
CCCOC(=O)Nc1ccc(-c2c(C#N)c3ccc(OC)cc3n2CCOC)cc1 [Compound 677],IC50,[1],500 to 2000 nM
same,melting point,,133 to 134 °C
CCNC(=O)N1CCc2cc(-c3c(C#N)c4ccc(OC)cc4n3CC)ccc21 [Compound 679],IC50,[1],500 to 2000 nM
same,melting point,,212 to 220 °C
CCCNC(=O)N1CCc2cc(-c3c(C#N)c4ccc(OC)cc4n3CC)ccc21 [Compound 680],IC50,[1],< 500 nM
same,melting point,,163 to 168 °C
CCn1c(-c2ccc3c(c2)CCN3C(=O)NC(C)C)c(C#N)c2ccc(OC)cc21 [Compound 681],IC50,[1],500 to 2000 nM
same,melting point,,192 to 197 °C
CCOc1ccc2c(C#N)c(-c3ccc(N(C)S(C)(=O)=O)cc3)n(C3CCC3)c2c1 [Compound 690],IC50,[1],500 to 2000 nM
same,melting point,,192 to 193 °C
CCOc1ccc2c(C#N)c(-c3ccc(N(C)S(=O)(=O)CC)cc3)n(C)c2c1 [Compound 692],IC50,[1],500 to 2000 nM
same,melting point,,175 to 176 °C
